Test results published in the NIST ThermoML archive (doi:10.1021/je800934r).

Experiment: mn = molality of the nth substance listed, in mol/kg
Conditions: 101 kPa, Liquid; for viscosity: Capillary tube (Ostwald / Ubbelohde) method; for speed of sound: Pulse-echo method; for mass density: Vibrating tube method

CCCCCCCCCCCCc1ccccc1S(=O)(=O)[O-].[Na+] [sodium dodecylbenzenesulfonate (ILL DEFINED!)] + O
Conditions | mass density, 298.15 K [kg/m3] | mass density, 308.15 K [kg/m3] | speed of sound, 298.15 K [m/s] | speed of sound, 308.15 K [m/s] | viscosity, 298.15 K [mPa·s] | viscosity, 308.15 K [mPa·s]
m1 = 0.05 | 999.92 | 996.76 | 1498.7 | 1522.7 | 0.999 | 0.795
m1 = 0.1 | 1002.75 | 999.44 | 1500 | 1523.5 | 1.106 | 0.868
